According to US20230103444A1 (The Regents of the University of Colorado, a Body Corporate, priority 2020, published 2023):

Legend:
[1] = system: VimPro-GFP SW620 xenograft tumors; experiment: Pharmacodynamic Western blot of xenograft tumor tissue; type: in vivo, athymic nude mice; conditions: 50 mg/kg i.p. QD 5 days
Experimental: CRC cell lines and homogenized tumor tissue samples from mice were resuspended in RIPA lysis buffer (20 mM Tris-HCl (pH 7.5), 150 mM NaCl, 1 mM Na2EDTA, 1 mM EGTA, 1% NP-40, 1% sodium deoxycholate, 2.5 mM sodium pyrophosphate, 1 mM b-glycerophosphate, 1 mM Na3VO4, 0.1 mM PMSF. Protein concentration was determined using the Pierce™ BCA protein assay kit (ThermoFisher, Waltham, Mass.). Forty micrograms of sample were run on 10% Bis-Tris gels. Following electrophoresis, the proteins were transferred to a nitrocellulose membrane. The membranes were blocked at room temperature with 5% non-fat milk in TBS/Tween® 20 (TBST contains 20 mM Tris, 150 mM NaCl, and 0.1% Tween®20 (Croda International PLC, Snaith, UK) for 1 hour at room temperature. Membranes were washed three times with TBST. Blots were incubated with the appropriate primary antibody in 5% nonfat milk in TBST overnight at 4° C. Membranes were washed three times with TBST and then incubated with appropriate secondary antibody for one hour. Membranes were washed again with TBST three times. […]
Two million VimPro-GFP SW620 cells suspended in 100 μL of a 1:1 mixture of Matrigel® matrix (Corning Life Sciences, Corning, N.Y.) and RPMI 1640 were injected into the flanks of 9-week old female athymic nude mice (Nude-Foxn1nu (069)) (Envigo, Huntingdon, Cambridgeshire, UK). Growth was monitored with caliper measurements 3× per week. […]

DLD1CHD1L-EV cells = experiment: DNA damage by γ-H2AX immunofluorescence; type: cell-based, human; conditions: low CHD1L expressing cells
Experimental: (§1) DLD1^CHD1L-OE cells were seeded into a 96-well PerkinElmer Cell Carrier plate and allowed to adhere overnight. Cells were then treated with the appropriate compound at 10 μM (0.5% DMSO) or with CHD1L inhibitor in combination SN-38 (1 μM), oxaliplatin (10 μM), and etoposide (10 μM). Cells were treated for 6 h. Media was aspirated and cells were washed with cold PBS. Cells were then fixed with 3% paraformaldehyde for 15 min at room temperature, fixed cells were washed with PBS three times. Cells were blocked for 1 hour at room temperature in 5% BSA, 0.3% Triton X-100 in PBS. Cells were then immunostained with phospho-(S139)-g-H2AX rabbit mAb using a 1:800 dilution in 1% BSA, 0.3% Triton X-100 in PBS at 4° C. overnight. Primary antibody was aspirated and cells were washed with PBS. Cells were incubated for 2 h at room temperature with goat anti-rabbit Alexa Fluor Plus™ 647 fluorescent secondary antibody at a concentration of 5 μg/mL in 1% BSA, 0.3% Triton X-100 in PBS. Cells were then washed with PBS, Hoechst 33342 stain was diluted to a concentration of 1:1000 in PBS, and added to cells for 15 min at room temperature. Cells were then imaged using a 20× water objective on the Opera Phenix™ HCS imaging system (PerkinElmer). Synergy was determined using the coefficient of drug interaction (CDI) equation, CDI=(A+B)/(AB). Synergy was defined in these experiments with a CDI<0.8. Additivity was 0.8-1.2 and antagonism was defined by a CDI>1.2.
(§2) γ-H2AX DNA damage combination studies with irinotecan (SN38). CHD1L inhibitor 6 alone and in combination with SN38 was assessed for DNA damage as previously reported [Abbott et al., 2020; Abraham et al., 2019]. Using DLD1 colorectal cancer cells that have low CHD1L endogenous expression and DLD1 cells engineered to overexpress CHD1L, DNA damage studies were conducted measuring the immunofluorescence of γ-H2AX, a well-established biomarker of DNA damage [Ji et al., 2017; Ivashkevich et al., 2012]. […] Media was aspirated and cells were washed with cold PBS. Cells were then fixed with 3% paraformaldehyde for 15 min at room temperature and washed with PBS three times. Cells were blocked for 1 hour at room temperature in 5% BSA, 0.3% Triton X-100 in PBS. Cells were then immunostained with phospho-(S139)-γ-H2AX rabbit mAb using a 1:800 dilution in 1% BSA, 0.3% Triton X-100 in PBS at 4° C. overnight. Primary antibody was aspirated, and cells were washed with PBS. Cells were incubated for 2 hours at room temperature with goat anti-rabbit Alexa Fluor Plus™ 647 fluorescent secondary antibody at a concentration of 5 μg/mL in 1% BSA, 0.3% Triton X-100 in PBS. Cells were then washed with PBS; Hoechst 33342 stain was diluted to a concentration of 1:1000 in PBS and added to cells for 15 min at room temperature. Cells were then imaged using a 20× water objective on the PerkinElmer Phenix HCS imaging system. […] CDI=(A+B)/(AB), synergy was determined with a CDI<0.8, additivity was 0.8-1.2, and antagonism was defined by a CDI>1.2. Welch's t-test statistical analysis was used to determine significance, where **=P≤0.01.

DLD1CHD1L-OE cells = experiment: DNA damage by γ-H2AX immunofluorescence; type: cell-based, human; conditions: 6 h; for DNA damage (γ-H2AX), combination with SN-38: compound 10 μM + SN-38 1 μM, vs SN-38 alone
Experimental: as §1, §2

[2] = Accumulation in SW620 xenograft tumors and liver; type: in vivo, athymic nude mice; conditions: 50 mg/kg i.p. QD 5 days, n=4
Experimental: Growth was monitored with caliper measurements 3× per week. […] Treatments were administered i.p. QD over five days. Mice were sacrificed 2 h after the final dose on day five of the treatment.

[3] = Pharmacokinetics in CD-1 mice
Experimental: Whole blood was harvested at specific time points and the separated plasma frozen at −80° C. for storage or used for LC-MS/MS analysis.

PDTO CRC102 = experiment: PDTO viability assay (CellTiter-Blue); type: cell-based; conditions: Homo sapiens, 72 h, read-out: cytotoxicity EC50
Experimental: CRC patient tumor tissues were obtained from the UCCC GI tissue bank and expanded following established protocols. [Morin et al., 1997]. Briefly, cells were seeded at 5,000 cells per well in 96-well plates and cultured by established methods [Franken et al., 2006] allowing PDTO formation over 72 h. […] PDTO cell viability was measured using CellTiter-Blue® reagent (Promega, Madison, Wis.). Media (80 μL) was aspirated from wells and 80 μL of the reagent was added and incubated for 4 h and cell viability was measured by fluorescence intensity using excitation 560 excitation and 590 emission.

Cc1cc(Nc2ccc(NC(=O)Cc3cccs3)cc2)nc(N2CCCC2)n1 [Compound 6, N-(4-((6-methyl-2-(pyrrolidin-1-yl)pyrimidin-4-yl)amino)phenyl)-2-(thiophen-2-yl)acetamide]
epithelial marker ZO-1 and cleaved caspase 3 in tumor tissue [1]: not statistically significant, upregulation of the epithelial marker ZO-1 and induction of cleaved caspase 3 | mesenchymal markers vimentin, vimentin reporter (VimPro-GFP) and slug in tumor tissue [1]: significant downregulation | DNA damage (γ-H2AX), combination with SN38 (DLD1CHD1L-EV cells): nor does it synergize with SN38 | DNA damage (γ-H2AX), compound alone (DLD1CHD1L-EV cells): does not induce significant DNA damage | DNA damage (γ-H2AX), combination with etoposide (DLD1CHD1L-EV cells; etoposide 10 μM): significant synergy | DNA damage (γ-H2AX activity), compound alone (DLD1CHD1L-OE cells; 10 μM): no significant DNA damage | DNA damage (γ-H2AX), combination with SN-38 (DLD1CHD1L-OE cells): synergized | DNA damage (γ-H2AX), combination with SN-38 (DLD1CHD1L-OE cells; listed as 6.0): synergy | DNA damage (γ-H2AX), combination with etoposide (DLD1CHD1L-OE cells; compound 10 μM + etoposide 10 μM, vs etoposide alone): synergized | DNA damage (γ-H2AX), combination with oxaliplatin (DLD1CHD1L-OE cells; compound 10 μM + oxaliplatin 10 μM): no synergy | concentration accumulated in SW620 tumors [2]: 10,533±5,579 ng/mL | AUC(0-t) ([3]; female, CD-1, mouse, plasma, ip, 50 mg/kg): 80300 ng·h/mL | Cmax ([3]; female, CD-1, mouse, plasma, ip, 50 mg/kg, CMax (ng/mL), single i.p. 50 mg/kg): ~30000 ng/mL | CMax (ng/mL) ([3]; plasma, single i.p. 50 mg/kg, 50 mg/kg): 29,900 ng/mL | CL ([3]; single i.p. 50 mg/kg): 10.3 mL/min/kg | V2 ([3]; single i.p. 50 mg/kg): 2.7 L/kg | EC50 (PDTO CRC102): 11.6 ± 2 µM
